Legend:
[1] = biological target: T1, recombinant guanylate cyclase reporter cell line (Rattus norvegicus, UniProt P20595); assay: sGC-activating activity in the CHO reporter cell in vitro; assay type: cell-based
T1 construct: expressed in transfected cells; host or cells: CHO reporter cell line
T1 sequence (P20595 1-619): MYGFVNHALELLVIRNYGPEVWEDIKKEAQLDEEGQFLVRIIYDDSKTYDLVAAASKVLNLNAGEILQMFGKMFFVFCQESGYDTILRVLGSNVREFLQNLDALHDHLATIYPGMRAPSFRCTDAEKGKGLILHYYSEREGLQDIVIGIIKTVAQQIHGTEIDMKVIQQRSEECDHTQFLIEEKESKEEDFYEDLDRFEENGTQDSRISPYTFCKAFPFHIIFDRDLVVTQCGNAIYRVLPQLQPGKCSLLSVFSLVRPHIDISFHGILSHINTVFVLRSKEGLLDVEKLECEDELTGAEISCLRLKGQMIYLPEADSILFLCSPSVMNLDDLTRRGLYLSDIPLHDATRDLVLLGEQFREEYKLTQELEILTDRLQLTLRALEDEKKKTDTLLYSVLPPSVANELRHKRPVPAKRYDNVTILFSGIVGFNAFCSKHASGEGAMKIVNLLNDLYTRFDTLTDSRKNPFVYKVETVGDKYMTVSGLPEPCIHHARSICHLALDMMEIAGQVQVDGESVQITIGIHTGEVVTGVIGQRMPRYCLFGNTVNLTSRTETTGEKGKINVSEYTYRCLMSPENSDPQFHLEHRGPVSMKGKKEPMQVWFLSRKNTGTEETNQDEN
T1 sequence (P19686 1-690 partner): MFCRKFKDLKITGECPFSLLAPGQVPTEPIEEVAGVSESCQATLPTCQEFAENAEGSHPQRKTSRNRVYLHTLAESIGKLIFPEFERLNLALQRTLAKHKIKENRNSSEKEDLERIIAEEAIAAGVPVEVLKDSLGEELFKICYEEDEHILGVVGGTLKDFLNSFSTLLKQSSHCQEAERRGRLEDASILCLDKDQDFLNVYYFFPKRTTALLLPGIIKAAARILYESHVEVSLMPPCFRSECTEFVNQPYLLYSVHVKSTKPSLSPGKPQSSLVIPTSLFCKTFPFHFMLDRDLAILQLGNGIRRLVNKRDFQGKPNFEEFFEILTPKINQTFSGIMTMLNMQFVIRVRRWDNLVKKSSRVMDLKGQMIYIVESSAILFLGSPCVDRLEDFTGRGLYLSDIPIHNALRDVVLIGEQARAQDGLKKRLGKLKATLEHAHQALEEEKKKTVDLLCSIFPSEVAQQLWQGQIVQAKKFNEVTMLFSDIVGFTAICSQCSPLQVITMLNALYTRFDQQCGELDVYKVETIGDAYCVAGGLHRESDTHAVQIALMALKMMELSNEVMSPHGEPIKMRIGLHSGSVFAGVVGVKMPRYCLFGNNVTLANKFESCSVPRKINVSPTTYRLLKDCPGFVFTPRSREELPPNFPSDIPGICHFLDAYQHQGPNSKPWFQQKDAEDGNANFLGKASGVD
Procedure: The cellular action of the compounds according to the invention is determined at a recombinant guanylate cyclase reporter cell line, as described in F. Wunder et al., Anal. Biochem. 339, 104-112 (2005).

[2] = biological target: T2, soluble guanylate cyclase (sGC) (Rattus norvegicus, UniProt P20595); assay: Activating action at the sGC enzyme in vitro (PPi detection, luciferase); assay type: biochemical; conditions: for EC50: read-out: EC50 (concentration at 50% of maximum efficacy), activating action at the sGC enzyme
T2 construct: made in house; host or cells: baculovirus/Sf9 insect cells
T2 sequence (P20595 1-619): T1 sequence (P20595 1-619)
T2 sequence (P19686 1-690 partner): T1 sequence (P19686 1-690 partner)
Procedure: Soluble guanylate cyclase (sGC) converts on stimulation GTP into cGMP and pyrophosphate (PPi). PPi is detected with the aid of the assay described below. The signal produced in the assay increases as the reaction progresses and serves as a measure of the sGC enzyme activity under the given stimulation.
To carry out the assay, 29 μl of enzyme solution [0-10 nM soluble guanylate cyclase (prepared according to Honicka et al., J. Mol. Med. 77, 14-23 (1999)) in 50 mM TEA, 2 mM MgCl2, 0.1% BSA (fraction V), 0.005% Brij®, pH 7.5] are initially introduced into a microplate, and 1 μl of the substance to be tested (as a serially diluted solution in DMSO) is added. The mixture is incubated at room temperature for 10 min. Then 20 μl of detection mix [1.2 nM Firefly Luciferase (Photinus pyralis luciferase, Promega), 29 μM dehydroluciferin (prepared according to Bitler & McElroy, Arch. Biochem. Biophys. 72, 358 (1957)), 122 μM luciferin (Promega), 153 μM ATP (Sigma) and 0.4 mM DTT (Sigma) in 50 mM TEA, 2 mM MgCl2, 0.1% BSA (fraction V), 0.005% Brij®, pH 7.5] are added. The enzyme reaction is started by adding 20 μl of substrate solution [1.25 mM guanosine 5′-triphosphate (Sigma) in 50 mM TEA, 2 mM MgCl2, 0.1% BSA (fraction V), 0.005% Brij®, pH 7.5] and measured continuously in a luminometer. The extent of the stimulation by the substance to be tested can be determined relative to the signal of the unstimulated reaction.
The activation of heme-free guanylate cyclase is examined by addition of 25 μM of 1H-1,2,4-oxadiazolo[4,3-a]quinoxalin-1-one (ODQ) to the enzyme solution and subsequent incubation for 30 minutes and compared to the stimulation of the native enzyme.

Row | SMILES | MEC (minimum effective concentration), sGC-activating activity in the CHO reporter cell [1] [nM] | MEC (minimum effective concentration), activating action at the sGC enzyme [2] [nM] | EC50 [2] [nM]
1 | O=C(O)c1ccc(CNC(=O)C(c2ccc(Cn3nc(-c4ccc(Cl)cc4)c4ccccc4c3=O)cc2)C2CCCC2)cc1 (racemic) [Example 1, 4-({[(4-{[4-(4-Chlorophenyl)-1-oxophthalazin-2(1H)-yl]methyl}phenyl)(cyclopentyl)acetyl]-amino}methyl)benzenecarboxylic acid] | 10 |  | 
2 | O=C(O)c1ccc(CNC(=O)C(c2ccc(Cn3nc(-c4ccc(Cl)cc4)c4ccccc4c3=O)cc2)C2CCCC2)nc1 (racemic) [Example 11, 6-({[(4-{[4-(4-chlorophenyl)-1-oxophthalazin-2(1H)-yl]-methyl}phenyl)(cyclopentyl)acetyl]amino}methyl)-pyridine-3-carboxylic acid] | 300 |  | 
3 | Cc1c(CCC(=O)O)cccc1NC(=O)C(c1ccc(CN2CCN(c3cccc(Cl)c3)C2=O)cc1)C1CCCC1 (racemic) [Example 26, 3-(3-{[(4-{[3-(3-chlorophenyl)-2-oxoimidazolidin-1-yl]methyl}phenyl)(cyclopentyl)acetyl]amino}-2-methylphenyl)propanoic acid] | 300 |  | 
4 | Cc1c(CCC(=O)O)cccc1NC(=O)C(c1ccc(Cn2nnc3ccccc3c2=O)cc1)C1CCCC1 (racemic) [Example 29, 3-{3-[(cyclopentyl{4-[(4-oxo-1,2,3-benzotriazin-3(4H)-yl)methyl]phenyl}acetyl)amino]-2-methyl-phenyl}propanoic acid] | 30 |  | 
5 | Cc1c(CCC(=O)O)cccc1NC(=O)C(c1ccc(Cn2nc(-c3ccccc3)oc2=O)cc1)C1CCCC1 (racemic) [Example 30, 3-{3-[(cyclopentyl{4-[(2-oxo-5-phenyl-1,3,4-oxadiazol-3(2H)-yl)methyl]phenyl}acetyl)amino]-2-methylphenyl}propanoic acid] | 30 |  | 
6 | O=C(O)CC[C@H]1CC[C@H](NC(=O)C(c2ccc(CN3N=C(c4ccccc4)OCC3=O)cc2)C2CCCC2)CC1 (single isomer, unassigned) [Example 118, 3-{trans-4-[(cyclopcntyl{4-[(5-oxo-2-phcnyl-5,6-dihydro-4H-1,3,4-oxadiazin-4-yl)mcthyl]phcnyl}acetyl)-amino]cyclohcxyl}propanoic acid] | 30 |  | 
7 | CC(C(C(=O)Nc1cccc(CC2(C(=O)O)CC2)c1)c1ccc(Cn2nc(C(F)(F)F)ccc2=O)cc1)C(F)(F)F (single isomer, unassigned) [Example 181, 1-(3-{[4,4,4-trifluoro-3-methyl-2-(4-{[6-oxo-3-(trifluoromethyl)pyridazin-1(6H)-yl]methyl}-phenyl)-butanoyl]amino}benzyl)cyclopropanecarboxylic acid] | 0.7 | 1.4 | 69

Continued, values first:

Row | MEC (minimum effective concentration), sGC-activating activity in the CHO reporter cell [1] [nM] | MEC (minimum effective concentration), activating action at the sGC enzyme [2] [nM] | EC50 [2] [nM] | SMILES
8 | 30 |  |  | O=C(O)CCc1cccc(NC(=O)C(c2ccc(Cn3nnc4ccccc4c3=O)cc2)C2CCCC2)c1 (racemic) [Example 21, 3-{3-[(cyclopentyl{4-[(4-oxo-1,2,3-benzotriazin-3(4H)-yl)methyl]phenyl}acetyl)amino]phenyl}-propanoic acid]
9 | 300 |  |  | O=C(O)CCc1cccc(NC(=O)C(c2ccc(Cn3nc(-c4ccccc4)oc3=O)cc2)C2CCCC2)c1 (racemic) [Example 22]
10 | 3 |  |  | CCC(C)C(C(=O)Nc1cccc(CCC(=O)O)c1)c1ccc(CN2N=C(c3ccccc3)OCC2=O)cc1 (single isomer, unassigned) [Example 62, 3-{3-[(3-Methyl-2-{4-[(5-oxo-2-phenyl-5,6-dihydro-4H-1,3,4-oxadiazin-4-yl)methyl]-phenyl}pentanoyl)amino]phenyl}propanoic acid]
11 | 10 |  |  | CC(C)C(C(=O)Nc1cccc(CCC(=O)O)c1)c1ccc(CN2N=C(c3ccccc3)OCC2=O)cc1 (single isomer, unassigned) [Example 105, 3-{3-[(3-mcthyl-2-{4-[(5-oxo-2-phcnyl-5,6-dihydro-4H-l,3,4-oxadiazin-4-yl)mcthyl]phenyl}butanoyl)-amino]phcnyl}propanoic acid]
12 | 10 |  |  | CC(C)C(C(=O)Nc1ccc(CCC(=O)O)cc1)c1ccc(CN2N=C(c3ccccc3)OCC2=O)cc1 (single isomer, unassigned) [Example 106, 3-{4-[(3-mcthyl-2-{4-[(5-oxo-2-phcny1-5,6-dihydro-4H-1,3,4-oxadiazin-4-yl)mcthyl]phenyl}butanoyl)-amino]phcnyl}propanoic acid]
13 | 30 | 3.4 | 35 | CC(CC(F)(F)F)C(C(=O)Nc1cccc(CC2(C(=O)O)CC2)c1)c1ccc(CN2N=C(c3ccccc3)OCC2=O)cc1 (single isomer, unassigned) [Example 160, 1-{3-[(5,5,5-trifluoro-3-methyl-2-{4-[(5-oxo-2-phenyl-5,6-dihydro-4H-1,3,4-oxadiazin-4-yl)methyl]phenyl}-pentanoyl)amino]benzyl}cyclopropanecarboxylic acid]
14 | 30 |  |  | O=C(O)c1ccc(CNC(=O)C(c2ccc(CN3N=C(c4ccccc4)OCC3=O)cc2)C2CCCC2)cc1 (single isomer, unassigned; ent-4) [Example 38, ent-4-{[(Cyclopentyl{4-[(5-oxo-2-phenyl-5,6-dihydro-4H-1,3,4-oxadiazin-4-yl)methyl]phenyl}acetyl)amino]methyl}benzenecarboxylic acid]
15 | 300 |  |  | COCC(C)C(C(=O)Nc1cccc(CCC(=O)O)c1C)c1ccc(CN2N=C(c3ccccc3)OCC2=O)cc1 (centres unmarked) [Example 3, 3-{3-[(4-Methoxy-3-methyl-2-{4-[(5-oxo-2-phenyl-5,6-dihydro-4H-1,3,4-oxadiazin-4-yl)-methyl]phenyl}butanoyl)amino]-2-methylphenyl}propanoic acid]
16 | 1 |  |  | O=C(O)CCc1ccc(Cl)c(NC(=O)C(c2ccc(CN3N=C(c4ccccc4)OCC3=O)cc2)C2CCCC2)c1 (centres unmarked) [Example 187, 3-{4-chloro-3-[(cyclopentyl{4-[(5-oxo-2-phenyl-5,6-dihydro-4H-1,3,4-oxadiazin-4-yl)methyl]-phenyl}acetyl)amino]phenyl}propanoic acid]

From patent US8987256B2, “Oxo-heterocyclic substituted carboxylic acid derivatives and the use thereof” (Bayer Intellectual Property GmbH, priority 2008, dated 2015)
